Laboratory results: patent US11925629B2, “Heterocyclic inhibitors of ERK1 and ERK2 and their use in the treatment of cancer” (Asana Biosciences, LLC, priority 2015, dated 2024)
Like-named read-outs stand apart in the source and are kept apart here.

What was measured:
Type in all cases: cell-based, human
[1] = tested on: HT-29 (colorectal carcinoma, B-RafV600E) cells; test: Cell proliferation (Alamar Blue) assay, HT-29; conditions: Homo sapiens, HT-29, HT29 cells
Summary of the method: (§1)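 Fluorescence read-out (ex 540 nm, em 590 nm) after 1-3 h with 1× Alamar Blue, following 72 h compound exposure at 37° C./5% CO2. Compounds tested at typically 0.0005 to 10 uM, 3-fold steps; IC50 by sigmoidal dose-response (variable slope).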

[2] = tested on: phosphorylation of RSK1(S380) (the downstream target of ERK1/2); test: Phospho-RSK1(S380) ELISA assay in HT-29 cells; conditions: Homo sapiens, HT-29, HT29 cells, read-out: Mechanistic Cell Assay RSK1 Phos HT29 IC50
Summary of the method: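 IC50 values derive from a variable-slope sigmoidal fit of sandwich-ELISA signal (450 nm) for RSK1 Ser380 phosphorylation. The cells were B-RafV600E HT-29 colorectal line, exposed to serially diluted compound for 2 h after overnight seeding, then lysed at 4° C.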

[3] = tested on: HCT116 (colorectal carcinoma, K Ras G13D) cells; test: Cell proliferation (Alamar Blue) assay, HCT116; conditions: Homo sapiens, HCT-116, HCT116 cells
Summary of the method: as §1

IC50 [1]	IC50 ([2]; phospho-RSK1(S380))	IC50 [3]	IC50 [2]	SMILES
250 to 500 nM	250 to 500 nM	250 to 500 nM	–	Cc1cnc(Nc2ccc3c(c2)OCCO3)nc1-n1ccc(C(=O)NC(CO)c2ccccc2)c1 (stereo not drawn) [Example 131, 1-(2-((2,3-dihydro-benzo[b][1,4]dioxin-6-yl)-amino)-5-methyl-pyrimidin-4-yl)-N-(2-hydroxy-1-phenylethyl)-1H-pyrrole-3-carboxamide]
> 2500 nM	> 2500 nM	> 2500 nM	–	Cc1cnc(NC2CCCOC2)nc1-n1ccc(C(=O)NC(CO)c2ccccc2)c1 (stereo not drawn) [Example 141, N-(2-hydroxy-1-phenylethyl)-1-(5-methyl-2-((tetrahydro-2H-pyran-3-yl)amino)-pyrimidin-4-yl)-1H-pyrrole-3-carboxamide]
250 to 500 nM	250 to 500 nM	250 to 500 nM	–	COc1cc(Nc2ncc(C)c(-n3ccc(C(=O)NC(CO)c4ccccc4)c3)n2)cc(OC)c1OC (stereo not drawn) [Example 121, N-(2-hydroxy-1-phenylethyl)-1-(5-methyl-2-((3,4,5-trimethoxy-phenyl)amino)pyrimidin-4-yl)-1H-pyrrole-3-carboxamide]
250 to 500 nM	≤ 100 nM	100 to 250 nM	–	Cc1cnc(Nc2ccc3c(c2)OCCO3)nc1-n1ccc(C(=O)NC(CO)c2cccc(Cl)c2)c1 (stereo not drawn) [Example 139, N-(1-(3-chloro-phenyl)-2-hydroxy-ethyl)-1-(2-((2,3-dihydro-benzo[b][1,4]dioxin-6-yl)amino)-5-methyl-pyrimidin-4-yl)-1H-pyrrole-3-carboxamide]
≤ 100 nM	≤ 100 nM	≤ 100 nM	–	Cc1cnc(NC2CCOCC2)nc1-n1cnc(C(=O)NCc2cccc(Cl)c2CO)c1 [Cmpd 93, N-(3-chloro-2-(hydroxy-methyl)benzyl)-1-(5-methyl-2-((tetrahydro-2H-pyran-4-yl)amino)-pyrimidin-4-yl)-1H-imidazole-4-carboxamide]
> 2500 nM	> 2500 nM	> 2500 nM	–	C#Cc1cccc(Nc2nccc(-n3cc(NC(=O)N[C@H](CO)c4cccc(Cl)c4)cn3)n2)c1 [Example 38, (S)-1-(1-(3-chlorophenyl)-2-hydroxy-ethyl)-3-(1-(2-((3-ethynyl-phenyl)amino)pyrimidin-4-yl)-1H-pyrazol-4-yl)urea]
500 to 2500 nM	500 to 2500 nM	> 2500 nM	–	Cc1cnc(NC2CCOC2)nc1-n1ccc(C(=O)NC(CO)c2ccccc2)c1 (stereo not drawn) [Example 128, N-(2-hydroxy-1-phenylethyl)-1-(5-methyl-2-((tetrahydro-furan-3-yl)amino)pyrimidin-4-yl)-1H-pyrrole-3-carboxamide]
> 2500 nM	> 2500 nM	> 2500 nM	–	Cc1cnc(Nc2ccc3c(c2)OC(F)(F)O3)cc1-n1ccc(C(=O)NC(CO)c2ccccc2)c1 (stereo not drawn) [Example 80, 1-(2-((2,2-difluorobenzo [d][1,3]dioxol-5-yl)-amino)-5-methyl-pyridin-4-yl)-N-(2-hydroxy-1-phenyl-ethyl)-1H-pyrrole-3-carboxamide]
> 2500 nM	250 to 500 nM	500 to 2500 nM	–	Cc1cnc(Nc2ccc(N3CCC(N4CCNCC4)CC3)cc2)nc1-n1ccc(C(=O)NC(CO)c2ccccc2)c1 (stereo not drawn) [Example 178, N-(2-hydroxy-1-phenylethyl)-1-(5-methyl-2-((4-(4-(piperazin-1-yl)piperidin-1-yl)phenyl)amino)pyrimidin-4-yl)-1H-pyrrole-3-carboxamide]
100 to 250 nM	100 to 250 nM	≤ 100 nM	–	COc1cc(Nc2ncc(C)c(-n3ccc(C(=O)N[C@H](CO)c4ccc(F)c(Cl)c4)c3)n2)cc(OC)c1OC [Example 126, (S)-N-(1-(3-chloro-4-fluorophenyl)-2-hydroxy-ethyl)-1-(5-methyl-2-((3,4,5-trimethoxy-phenyl)amino)pyrimidin-4-yl)-1H-pyrrole-3-carboxamide]
250 to 500 nM	250 to 500 nM	250 to 500 nM	–	Cc1cnc(Nc2ccc3c(c2)OCC3)nc1-n1ccc(C(=O)NC(CO)c2ccccc2)c1 (stereo not drawn) [Example 185, 1-(2-((2,3-dihydrobenzofuran-6-yl)amino)-5-methylpyrimidin-4-yl)-N-(2-hydroxy-1-phenylethyl)-1H-pyrrole-3-carboxamide]
500 to 2500 nM	500 to 2500 nM	500 to 2500 nM	–	Cc1cnc(Nc2ccc3occc3c2)nc1-n1cnc(C(=O)NC(CO)c2cccc(Cl)c2)c1 (stereo not drawn) [Example 132, 1-(2-(benzo-furan-5-ylamino)-5-methyl-pyrimidin-4-yl)-N-(1-(3-chlorophenyl)-2-hydroxy-ethyl)-1H-imidazole-4-carboxamide]
250 to 500 nM	500 to 2500 nM	500 to 2500 nM	–	Cc1cnc(Nc2ccc(C3CCNCC3)c(F)c2)nc1-n1ccc(C(=O)NC(CO)c2cccc(Cl)c2)c1 (stereo not drawn) [Example 216, N-(1-(3-chlorophenyl)-2-hydroxyethyl)-1-(2-((3-fluoro-4-(piperidin-4-yl)phenyl)amino)-5-methylpyrimidin-4-yl)-1H-pyrrole-3-carboxamide]
≤ 100 nM	100 to 250 nM	≤ 100 nM	–	Cc1cnc(NC2CCOCC2)nc1-n1cnc(C(=O)N[C@H](CNCc2ccc[nH]2)c2cccc(Cl)c2)c1 [Example 306, (S)-N-(2-(((1H-pyrrol-2-yl)methyl)amino)-1-(3-chlorophenyl)ethyl)-1-(5-methyl-2-((tetrahydro-2H-pyran-4-yl)amino)pyrimidin-4-yl)-1H-imidazole-4-carboxamide]
500 to 2500 nM	500 to 2500 nM	500 to 2500 nM	–	Cc1cnc(Nc2ccc3c(c2)OC(F)(F)O3)nc1-n1ccc(C(=O)NC(CO)c2cccc(Cl)c2)c1 (stereo not drawn) [Example 62, N-(1-(3-chloro-phenyl)-2-hydroxy-ethyl)-1-(2-((2,2-difluoro-benzo[d][1,3]dioxol-5-yl)amino)-5-methyl-pyrimidin-4-yl)-1H-pyrrole-3-carboxamide]
> 2500 nM	> 2500 nM	> 2500 nM	–	Cc1cnc(NC(CO)CO)nc1-n1ccc(C(=O)NC(CO)c2ccccc2)c1 (stereo not drawn) [Example 147, 1-(2-((1,3-dihydroxy-propan-2-yl)amino)-5-methyl-pyrimidin-4-yl)-N-(2-hydroxy-1-phenylethyl)-1H-pyrrole-3-carboxamide]
> 2500 nM	> 2500 nM	> 2500 nM	–	CN(C(=O)Nc1cnn(-c2ccnc(NC3CC3)n2)c1)[C@H](CO)c1ccccc1 [Example 18, (S)-3-(1-(2-(cyclopropyl-amino)pyrimidin-4-yl)-1H-pyrazol-4-yl)-1-(2-hydroxy-1-phenylethyl)-1-methylurea]
500 to 2500 nM	250 to 500 nM	> 2500 nM	–	CCC(C)Nc1ncc(C)c(-n2ccc(C(=O)N[C@H](CO)c3ccc(F)c(Cl)c3)c2)n1 (stereo partly drawn) [Example 197, 1-(2-(sec-butylamino)-5-methylpyrimidin-4-yl)-N-((S)-1-(3-chloro-4-fluorophenyl)-2-hydroxyethyl)-1H-pyrrole-3-carboxamide]
≤ 100 nM	100 to 250 nM	500 to 2500 nM	–	Cc1cnc(NC2CCOCC2)nc1-n1cnc(C(=O)NC(CO)c2cccc(Cl)c2)c1 (stereo not drawn) [Compound 201, N-(1-(3-chlorophenyl)-2-hydroxyethyl)-1-(5-methyl-2-((tetrahydro-2H-pyran-4-yl)amino)pyrimidin-4-yl)-1H-imidazole-4-carboxamide]
100 to 250 nM	≤ 100 nM	100 to 250 nM	–	Cc1cnc(Nc2ccc3occc3c2)nc1-n1ccc(C(=O)NC(CO)c2ccccc2)c1 (stereo not drawn) [Example 65, 1-(2-(benzo-furan-5-ylamino)-5-methyl-pyrimidin-4-yl)-N-(2-hydroxy-1-phenylethyl)-1H-pyrrole-3-carboxamide]
≤ 100 nM	100 to 250 nM	500 to 2500 nM	–	Cc1cnc(NC2CCOCC2)nc1-n1cnc(C(=O)N[C@@H](CN)c2cccc(Cl)c2)c1 (single isomer, unassigned) [Compound 225b]
500 to 2500 nM	–	500 to 2500 nM	250 to 500 nM	Cc1cnc(NC2CCOCC2)nc1-n1cnc(C(=O)NC(C)(C)c2cccc(Cl)c2CO)c1 [Example 341, N-(2-(3-chloro-2-(hydroxymethyl)phenyl)propan-2-yl)-1-(5-methyl-2-((tetrahydro-2H-pyran-4-yl)amino)pyrimidin-4-yl)-1H-imidazole-4-]
500 to 2500 nM	250 to 500 nM	> 2500 nM	–	Cc1cnc(Nc2ccccc2)cc1-n1cnc(C(=O)NC(CO)c2cccc(Cl)c2)c1 (stereo not drawn) [Example 180, N-(1-(3-chlorophenyl)-2-hydroxyethyl)-1-(5-methyl-2-(phenylamino)pyridin-4-yl)-1H-imidazole-4-carboxamide]
> 2500 nM	500 to 2500 nM	> 2500 nM	–	CCC(COC)Nc1ncc(C)c(-n2ccc(C(=O)NC(CO)c3cccc(Cl)c3)c2)n1 (stereo not drawn) [Example 127, N-(1-(3-chloro-phenyl)-2-hydroxy-ethyl)-1-(2-((1-methoxy-butan-2-yl)amino)-5-methyl-pyrimidin-4-yl)-1H-pyrrole-3-carboxamide]
≤ 100 nM	–	≤ 100 nM	≤ 100 nM	Cc1cnc(NC2CCOCC2)nc1-n1cnc(C(=O)NCc2cccc(Cl)c2CCO)c1 [Example 334, N-(3-chloro-2-hydroxyethylbenzyl)-1-(5-methyl-2-((tetrahydro-2H-pyran-4-yl)amino)pyrimidin-4-yl)-1H-imidazole-4-carboxamide]
